According to patent publication US10765754B2, “Compositions and methods related to inhibition of respiratory syncytial virus entry” (priority 2015, dated 2020):
pIC50, pKd: −log10 of the molar value. Like-named read-outs stand apart in the source and are kept apart here. Starred links: 1 amine or outer side, 2 acyl side, 3 side chain; linkers in the order of their positions; H or OH if unused. Positions of bridges follow the written chain, without caps; N, C: chain ends. Non-standard residues stand in square brackets, D forms with d. Residues, ends and D or L forms follow the SMILES beside them. Chains are numbered I, II in the order given. X1 = NCCOCCOCCOCCOCCOCCOCCOCCOCCOCCOCCOCCOCCOCCOCCOCCOCCOCCOCCOCCOCCOCCOCCOCCOCCOCCOCCOCCOCCC(=O)NC(CCC(=O)[*:1])(CCC(=O)[*:2])CCC(=O)[*:3]; PEG6 = NCCOCCOCCOCCOCCOCCOCCC(=O)O

How the values were obtained:
[1] = target: IZN45; test: SPR binding to IZN45 N-trimer mimic, subtype not stated; parameters: species or system RSV
Source text: (§1) IZN45 N-trimer mimic comprises the IZ domain, a highly soluble, designed coiled-coil that helps solubilize the N-trimer, along with the C-terminal (bottom) 45 residues of the RSV N-trimer. IZN45 encompasses the full ordered portion of the N-trimer except for three N-terminal residues (removed to maintain a continuous heptad repeat with the IZ domain). The interactions between 35-residue RSV C-peptides, T108 and T118 (Lambert et al., 1996, Proc. Natl. Acad. Sci. USA 93:2186-2191), and IZN45 was examined by surface plasmon resonance (SPR). SPR is a gold standard assay to measure the kinetics and affinity of biological interactions. […] The Biotinylated L-form of RSV target IZN45 was captured onto one lane of a NeutrAvidin coated SPR chip. A mutant version of IZN45 containing four mutated residues along the N-trimer groove designed to disrupt binding (IZN45 Full Mut, negative control) was captured onto a separate lane of the NeutrAvidin chip. T118, corresponding to the C-terminal portion of the RSV F ectodomain, which is known to interact with the RSV N-trimer groove, was flowed over the various surfaces. […] The surfaces were regenerated with a detergent (0.1% SDS) after each injection of analyte. Various concentrations of T118 were measured in duplicate or triplicate injections. D-peptide interactions with IZN45 and IZN45-Full Mut surfaces were also measured using this method.
(§2) Peptides from the ‘winning’ phage clones from each library were synthesized as D-peptides. If solubility of the peptides was limited, N- or C-terminal charged residue(s) (e.g., lysine) were attached as necessary as previously described for HIV peptides in Eckert et al., 1999, Cell 99:103-15, incorporated by reference in its entirety. Binding affinity and kinetics of the D-peptide inhibitors to the IZN45 and IZN45 mutants was characterized by SPR (Biacore 3000), using methods as described in Welch et al., 2007, Proc. Natl. Acad. Sci. USA 104:16828-33, incorporated by reference in its entirety.

[2] = target: T1, RSV-A/IZN45 (Human respiratory syncytial virus A, UniProt P03420); test: SPR binding to RSV-A IZN45 N-trimer mimic; conditions: Kd, RSV-A/IZN45
T1 construct: N-trimer Mimics Synthesized; made in house; host or cells: chemical peptide synthesis
Source text: as §1, §2

[3] = target: T2, RSV-B/IZN45 (Human respiratory syncytial virus B, UniProt O36634); test: biochemical; assay type: binding; conditions: RSV-B/IZN45
T2 construct: N-trimer Mimics Synthesized; made in house; host or cells: chemical peptide synthesis
Source text: as §1, §2

[4] = target: T3, RSV-A F protein (Human respiratory syncytial virus A, UniProt P03420); test: cell-based
T3 construct: expressed in transfected cells; host or cells: 293 T cells
Method: The RSV Syncytia reduction assay was used to evaluate D-peptide inhibitors of RSV entry (IC50). In brief, 293 T cell were plated in a 96-well plate and a 6-well plate. The cells in the 96-well plate were co-transfected with DNA encoding the RSV F protein (or RSV G protein as a negative control) and DNA encoding firefly luciferase downstream of multiple GAL4 binding sites (CheckMate Mammalian Two-Hybrid system, Promega). These cells were designated the effector cells. The cells in the 6-well plate were transfected with GAL4:Id and VP16:MyoD fusion constructs, which interact and drive gene expression in the presence of GAL4 binding sites. These cells were the target cells. At 24 hours post-transfection, the media is removed from the effector cells and D-peptide inhibitors at 2× concentration (diluted in fresh media) were added. Also at 24 hours post-transfection, the target cells are washed with PBS, gently dissociated from the 6-well plate using Versene (0.48 mM EDTA in PBS), and overlaid (at equal volume) onto the effector cells containing 2× inhibitor. At 48 h post-transfection, the cells are lysed using Glo Lysis Buffer (Promega). Bright Glo luciferase assay substrate is added and luminescent signal from expressed luciferase is measured. Luciferase is only expressed in effector cells that fuse (form syncytia) with target cells.

[5] = system: RSVA-IZN45 (SEQ ID NO: 34); conditions: Table 8 Result column
Source text: AC-K-(PEG4)DDG-RSVP32 (SEQ ID NO:142) is an affinity matured RSV N-trimer binder identified from phage display and represents an optimized binding solution from a disulfide constrained CX10C (disulfide constrained 10-mer) library based on the 20 natural amino acids. […] Using the co-crystal structure of RSVP32 (SEQ ID NO:31) and RSVA-IZN21 (SEQ ID NO:34), a molecular-modeling suite (ICM-Pro, MolSoft LLC) was used to model various natural and non-natural amino acid substitutions and calculate binding energies. The following parameters were used to calculate binding energy: electrostatic boundary element energy, H-bonds, solvation energy estimated as surface tension, and side-chain entropy.

[6] = system: RSV; conditions: high-risk infants; cited from earlier work
[7] = target: IZN45 Full Mut (Human respiratory syncytial virus B, UniProt O36634, A170W/A177W/D194W/G184W/N197K); conditions: IZN45 Full Mut / IZN45_Mut, SPR
Source text: as §1, with “method. […]” for “method.”

[8] = system: HIV; conditions: standard viral passaging, escalating inhibitor; cited from earlier work
[9] = running text/figure legend, IZN45 subtype not stated
[10] = synthesized peptide, KD determined by SPR
[11] = (L) inhibitors of RSV, controls for D-peptide studies, assay not stated in Table 6, read-out: IC50
[12] = IC50, (L) inhibitors of RSV, controls for D-peptide studies, assay not stated in Table 6
[13] = subsequent trimer/compound made from peptide, SPR
[14] = IC50, subsequent trimer/compound made from peptide, syncytia reduction assay using RSV-A F protein

CC(=O)N[C@H](CCCCN)C(=O)NCCOCCOCCOCCOCCOCCOCCC(=O)NCC(=O)N[C@H](C)C(=O)N[C@@H]1CSSC[C@H](C(=O)N[C@H](C)C(=O)N[C@H](C)C(N)=O)NC(=O)[C@@H](Cc2c[nH]c3ccccc23)NC(=O)[C@@H](CC(=O)O)NC(=O)[C@@H](CC(C)C)NC(=O)[C@@H](CC(C)C)NC(=O)[C@@H](Cc2c[nH]c3ccccc23)NC(=O)[C@@H](Cc2c[nH]cn2)NC(=O)[C@H]2CCCN2C(=O)[C@@H](CCC(=O)O)NC(=O)[C@@H](CC(N)=O)NC(=O)[C@@H](CCCNC(=N)N)NC1=O [Ac-K(PEG6)-RSVP20] (Ac-[dK][PEG6]G[dA][dC][dR][dN][dE][dP][dH][dW][dL][dL][dD][dW][dC][dA][dA]-NH2; disulfide 5-16)
pKd ([1]; b401, printed without unit): 5.43
pKd [1, 9]: 5.43
pKd [2, 10]: 5.43
pKd [3, 10]: 5.39

CC(=O)N[C@H](CCCCN)C(=O)NCC(=O)NCC(=O)N[C@H](C)C(=O)N[C@@H]1CSSC[C@H](C(=O)N[C@H](C)C(=O)N[C@H](C)C(N)=O)NC(=O)[C@@H](Cc2c[nH]c3ccccc23)NC(=O)[C@@H](CC(=O)O)NC(=O)[C@@H](CC(C)C)NC(=O)[C@@H](CC(C)C)NC(=O)[C@@H](Cc2c[nH]c3ccccc23)NC(=O)[C@@H](Cc2c[nH]cn2)NC(=O)[C@H]2CCCN2C(=O)[C@@H](CCC(=O)O)NC(=O)[C@@H](CC(N)=O)NC(=O)[C@@H](CCCNC(=N)N)NC1=O [Ac-KG-RSVP20] (Ac-[dK]GG[dA][dC][dR][dN][dE][dP][dH][dW][dL][dL][dD][dW][dC][dA][dA]-NH2; disulfide 5-16)
pIC50 ([4]; IC50, synthesized peptide, syncytia reduction assay using RSV-A F protein): 3.17

(biotin-PEG2)GKG-IKKEIEAIKKEQEAIKKKIEALEGEVNKIKSALLSTNKAVVSLSNGVSVLTSKVLDLKNYIDKQLLPIV-NH2 [(Biotin-PEG2)GKG-RSVA IZN48]
pIC50 [4, 11]: 6.67

Ac-GECVN(HRG)PEWLLDWCGT-NH2 [SEQ ID NO: 147]
Decreased potency compared to RSVP32 [5]: 2.6-fold compared
potency [5]: 0.065 µM

Ac-GECVNQPEWLLDWCGT-NH2 [SEQ ID NO: 151]
Decreased potency compared to RSVP32 [5]: ~2-fold compared
potency [5]: 0.053 µM

Ac-GEVCRPEWLLDWCGT-NH2 [SEQ ID NO: 159]
Decreased potency compared to RSVP32 [5]: 14.4-fold
potency [5]: 0.36 µM

Ac-IKKEIEAIKKEQEAIKKKIEAIEKEVNKIKSALLSTNKAVVSLSNGVSVLTSKVLDLKNYIDKQLLPIV-NH2 [Ac-RSV-A IZN45]
pIC50 [4, 12]: 8.22

GECVNRPEWLLDWCGT [RSVP32]
potency [5]: 0.025 µM

H-YGFDASISQVNEKINQSLAFIRKSDELLHNVNAGKST-NH2 [YG-T118]
pIC50 [4, 12]: 5.10

I: Ac-YGFDASISQVNEKINQSLAFIRKSDELLHNVNAGKSTG[PEG6]KGKG-NH2 / II: Ac-YGFDASISQVNEKINQSLAFIRKSDELLHNVNAGKSTG[PEG6] / III: Ac-YGFDASISQVNEKINQSLAFIRKSDELLHNVNAGKSTG[PEG6] (amide I:40-II:C, I:42-III:C) [YG-T118-Tricasso]
pIC50 [4, 12]: 6.19

I: Ac-[dK][PEG6]G[dA][dC][dR][dN][dE][dP][dH][dW][dL][dL][dD][dW][dC][dA][dA]-NH2 / II: Ac-[dK][PEG6]G[dA][dC][dR][dN][dE][dP][dH][dW][dL][dL][dD][dW][dC][dA][dA]-NH2 / III: Ac-[dK][PEG6]G[dA][dC][dR][dN][dE][dP][dH][dW][dL][dL][dD][dW][dC][dA][dA]-NH2 (linker I:1-II:1-III:1 via X1; disulfide I:5-I:16, II:5-II:16, III:5-III:16; C-terminus assumed) [Ac-K(PEG6)-RSVP20-trimer]
pKd [1, 9]: 9.52
improvement in binding affinity of trimer over the corresponding monomer ([1]; trimerization): 10,000 fold
pKd [2, 13]: 9.52
pKd [3, 13]: 8.77

I: Ac-[dK][PEG6]G[dH][dA][dC][dV][dN][dR][dP][dE][dW][dL][dL][dD][dW][dC]G[dR]G[dR][dR]-NH2 / II: Ac-[dK][PEG6]G[dH][dA][dC][dV][dN][dR][dP][dE][dW][dL][dL][dD][dW][dC]G[dR]G[dR][dR]-NH2 / III: Ac-[dK][PEG6]G[dH][dA][dC][dV][dN][dR][dP][dE][dW][dL][dL][dD][dW][dC]G[dR]G[dR][dR]-NH2 (linker I:1-II:1-III:1 via X1; disulfide I:6-I:17, II:6-II:17, III:6-III:17) [Ac-K(PEG6)G-RSVP26-GRR-trimer]
pIC50 [4, 14]: 5.26

I: Ac-[dK][PEG6][dD][dD]G[dS][dM][dC][dV][dN][dR][dP][dE][dW][dL][dL][dD][dW][dC]G[dT]-NH2 / II: Ac-[dK][PEG6][dD][dD]G[dS][dM][dC][dV][dN][dR][dP][dE][dW][dL][dL][dD][dW][dC]G[dT]-NH2 / III: Ac-[dK][PEG6][dD][dD]G[dS][dM][dC][dV][dN][dR][dP][dE][dW][dL][dL][dD][dW][dC]G[dT]-NH2 (linker I:1-II:1-III:1 via X1; disulfide I:8-I:19, II:8-II:19, III:8-III:19) [Ac-K(PEG6)DDG-RSVP24-trimer]
pIC50 [4, 14]: 5.26

I: Ac-[dS][dM][dC][dV][dN][dR][dP][dE][dW][dL][dL][dD][dW][dC]G[dT]G[dD][dD][PEG6][dK]-NH2 / II: Ac-[dS][dM][dC][dV][dN][dR][dP][dE][dW][dL][dL][dD][dW][dC]G[dT]G[dD][dD][PEG6][dK]-NH2 / III: Ac-[dS][dM][dC][dV][dN][dR][dP][dE][dW][dL][dL][dD][dW][dC]G[dT]G[dD][dD][PEG6][dK]-NH2 (disulfide I:3-I:14, II:3-II:14, III:3-III:14; linker I:21-II:21-III:21 via X1; C-terminus assumed) [Ac-RSVP24-GDD(PEG6)K-trimer]
pIC50 [4, 14]: 5.34

LEGEVNKIKSALLSTNKAVVSLSNGVSVLTSKVLDLKNYIDKQLLPIVNIKKEIEAIKKEQEAIKKKIEAI-GKG-(Glu-biotinyl-PEG)-NH2 [RSVA N49IZ-GKG(Glu-Biotinyl-PEG)]
pIC50 [4, 11]: 6.99

Synagis: monoclonal antibody (mAb) given prophylactically throughout RSV season
reduction of hospitalizations [6]: 55%

T118: 35-residue RSV C-peptide corresponding to the C-terminal portion of the RSV F ectodomain (FDASISQVNEKINQSLAFIRKSDELLHNVNAGKST)
binding to mutant control target [7]: did not bind

enfuvirtide
time in which resistance develops [8]: 2-3 weeks
